# Measured values from patent publication US20240150401A1, “INSECT NEUROPEPTIDES 7” (Solasta Bio Limited, priority 2022, published 2024).
# Tests used:
# Format in all cases: in vivo
# Myzus persicae aphids = assay: Leaf dip assay (IRAC susceptibility test method 019), mortality assessment; conditions: unformulated, mortality assessed at 72, 96 and 120 hours, compared to vehicle and Spirotetramat (FIGS. 6-8)
# Description: The assay was carried out based on IRAC susceptibility test method 019 (https://irac-online.org/methods/aphids-adultnymphs/).
# Fill a small 4 cm wide 3 cm high dish with a 1% agar treatment solution of the active chemical or control (ensuring 1 cm gap between the agar and the lid) and leave to set. Dip a 2.5 cm leaf disc into 3 ml of treatment solution allowing the treatment to coat the leaf. Leave the disc to dry for 1 hour and place onto the set agar. Place insects (Myzus persicae aphids) onto each of the leaf discs. Each unit is sealed with a close-fitting, ventilated lid. Place the agar dishes in a small plastic tray lined with moist tissue paper and ensure the water trays in the bottom of the incubator are filled with clean water and place within the incubator. An assessment of mortality is made at 72, 96 and 120 hours. Leaf dip assays were performed with SB-P-66, and compared to a negative control vehicle and a current commercial insecticide Spirotetramat. The activity of SB-P-66 is shown in FIGS. 6 and 7; SB-P-66 has good activity whilst being eco-friendly and targeted to specific pests unlike broad spectrum chemical insecticides such as Spirotetramat.
# bees = assay: Bee oral toxicity test (adapted from OECD Test No. 247: Bumblebee, Acute Oral Toxicity Test); conditions: 96 hours after application, compared to Imidacloprid (FIG. 9)
# Description: Bee oral testing protocol was carried out adapted from OECD Test No. 247: Bumblebee, Acute Oral Toxicity Test. The toxicity of SB-P-66 was compared with a negative control of sucrose or vehicle, and with a current commercial insecticide Imidacloprid.
# Aphis fabae = assay: Field trials on vining peas (PGRO); conditions: unformulated, naturally infested, comparable to commercial insecticides (FIGS. 10, 13)
# Description: (§1) Field trials for peptide SB-P-66, unformulated, against various insects were conducted by third-party organisations PGRO and AgriScience.
# Aphis gossypii = assay: Field trials on cotton and melon (AgriScience); conditions: unformulated, naturally infested, comparable to commercial insecticides (FIGS. 11, 12)
# Description: as §1
# [1] = tested on: Amrasca biguttula (leaf hopper); assay: Field trials; conditions: unformulated; naturally infested; over time; comparable to commercial insecticides (FIG. 14)
# Description: as §1
# Myzus persicae = assay: Field trials; conditions: unformulated; comparable to commercial insecticides
# Description: as §1
substance,measurement,setting,value
"H-PAFSSWG-NH2 [SB-P-66, [Hy]-PAFSSWG-[NH2]]",activity against Myzus persicae (mortality),Myzus persicae aphids,good activity
same,bee oral toxicity (% survival),bees,far lower toxicity
same,efficacy in field trials against Aphis fabae,Aphis fabae,good efficacy
same,efficacy in field trials against Aphis gossypii,Aphis gossypii,good efficacy
same,efficacy in field trials against Amrasca biguttula,[1],good efficacy
same,efficacy in field trials against Myzus persicae,Myzus persicae,good efficacy
